Legend:
wild-type EGFR = conditions: cited from earlier work
[1] = tested on: osimertinib metabolism in rat liver microsomes; assay: Inhibition by avitinib of osimertinib metabolism in rat liver microsomes; format: in vitro ADME; conditions: pH 7.4, probe osimertinib 0.01 μM
[2] = Metabolic stability of osimertinib in RLMs; format: in vitro ADME, rat; conditions: rat, rat liver microsomes, pH 7.4
[3] = tested on: rat liver microsomes (RLM); assay: Metabolic stability of osimertinib in RLMs; format: in vitro ADME; conditions: osimertinib incubation with RLMs
[4] = Pharmacokinetics of osimertinib in rats after pretreatment with avitinib; format: in vivo, Sprague-Dawley rats
[5] = avitinib multiple doses group vs control
[6] = avitinib single dose group vs control

## C=CC(=O)Nc1cccc(Oc2nc(Nc3ccc(N4CCN(C)CC4)c(F)c3)nc3[nH]ccc23)c1 [avitinib]
wild-type EGFR
  effect on wild-type EGFR: no effects
[1]
  IC50: 27.6 µM

## C=CC(=O)Nc1cc(Nc2nccc(-c3cn(C)c4ccccc34)n2)c(OC)cc1N(C)CCN(C)C [osimertinib]
wild-type EGFR
  inhibitory effect on the wild-type EGFR protein: weak inhibitory effect
[2]
  half-life at 0.01 μM: 33.6 min
[3]
  Slope (Ln remaining percent vs incubation time): 0.02062
[4]; [5]
  decrease of CLz/F vs control: 52%
  increase of AUC(0-t) vs control: 1.91 fold
  increase of AUC(0-∞) vs control: 1.92 fold
  increase of Cmax vs control: 1.66 fold
  increase of MRT(0-t) vs control: 1.39 fold
  increase of Tmax vs control: 1.74 fold
[4]; [6]
  decrease of CLz/F vs control: 44%
  increase of AUC(0-t) vs control: 2.35 fold
  increase of AUC(0-∞) vs control: 2.38 fold
  increase of Cmax vs control: 1.72 fold
  increase of MRT(0-t) vs control: 1.31 fold
  increase of Tmax vs control: 1.48 fold

— article PMC7529555 (Thoracic Cancer, 2020)
